From ChEMBL document CHEMBL1131915, “Substituted furans as inhibitors of the PDE4 enzyme” (Bioorg Med Chem Lett, 1999)

What was measured:
[1] = biological target: 3',5'-cyclic-AMP phosphodiesterase 4A (Homo sapiens, UniProt P27815); assay: PDE4A activity assessed using human recombinant purified GST-PDE4A248
Mustela putorius furo = species on record: Mustela putorius furo; assay: Emetic effect in ferret model, threshold value; type: functional

Chain of 3',5'-cyclic-AMP phosphodiesterase 4A (P27815 whole entry): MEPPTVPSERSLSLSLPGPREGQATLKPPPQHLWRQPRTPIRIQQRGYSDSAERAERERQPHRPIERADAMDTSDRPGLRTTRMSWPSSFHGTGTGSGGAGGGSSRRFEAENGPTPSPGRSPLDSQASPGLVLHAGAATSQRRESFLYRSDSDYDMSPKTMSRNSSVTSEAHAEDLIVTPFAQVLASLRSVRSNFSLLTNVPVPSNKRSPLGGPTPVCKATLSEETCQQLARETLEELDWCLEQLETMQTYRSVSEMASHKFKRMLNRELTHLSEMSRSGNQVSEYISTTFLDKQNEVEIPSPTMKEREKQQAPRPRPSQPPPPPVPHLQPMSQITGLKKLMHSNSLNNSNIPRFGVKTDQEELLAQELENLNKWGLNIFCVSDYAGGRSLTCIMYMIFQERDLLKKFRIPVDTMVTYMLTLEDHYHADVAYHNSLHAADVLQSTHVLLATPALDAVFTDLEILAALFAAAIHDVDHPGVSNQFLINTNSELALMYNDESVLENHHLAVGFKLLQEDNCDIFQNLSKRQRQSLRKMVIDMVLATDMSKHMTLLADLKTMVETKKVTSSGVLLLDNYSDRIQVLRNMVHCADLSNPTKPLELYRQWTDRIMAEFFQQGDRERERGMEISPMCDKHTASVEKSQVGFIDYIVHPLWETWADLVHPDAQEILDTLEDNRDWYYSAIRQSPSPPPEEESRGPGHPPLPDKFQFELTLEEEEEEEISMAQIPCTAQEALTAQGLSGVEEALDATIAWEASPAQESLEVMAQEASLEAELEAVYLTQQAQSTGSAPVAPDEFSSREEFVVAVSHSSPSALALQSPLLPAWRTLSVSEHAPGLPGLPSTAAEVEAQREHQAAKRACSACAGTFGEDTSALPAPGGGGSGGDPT

Row | SMILES | IC50 [1] [µM] | Threshold value (Mustela putorius furo) [mg/kg]
1 | COc1ccc(-c2ccc(-c3ccncc3)o2)cc1OC1CCCC1 | 0.065 | –
2 | COc1ccc(-c2oc(-c3ccccn3)cc2S(=O)(=O)c2ccccc2)cc1OC1CCCC1 | 0.77 | –
3 | O=C(c1ccccc1)c1cc(-c2ccccc2)oc1-c1ccccc1 | 0.34 | –
4 | COc1ccc(-c2ccc(-c3ccc4ccccc4n3)o2)cc1OC1CCCC1 | 0.19 | –
5 | COc1ccc(-c2cc(C(C)=O)c(-c3ccc(OC)c(OC)c3)o2)cc1OC | 0.12 | –
6 | COc1ccc(-c2ccc(-c3ccc(OC)c(OC4CCCC4)c3)o2)cc1OC1CCCC1 | 0.044 | –
7 | COc1ccc(-c2ccc(-c3cccnc3)o2)cc1OC1CCCC1 | 0.37 | –
8 | c1ccc(-c2ccc(-c3ccccc3)o2)cc1 | > 10 | –
9 | COc1ccc([C@@H]2CNC(=O)C2)cc1OC1CCCC1 [(-)-ROLIPRAM] | – | 0.3
10 | COc1ccc(-c2ccc(-c3ccccn3)o2)cc1OC1CCCC1 | 0.025 | 10
11 | c1ccc(-c2cc(N3CCOCC3)c(-c3ccccc3)o2)cc1 | 2.3 | –
12 | COc1ccc(-c2ccc(-c3ccc(OC)c(OC)c3)o2)cc1OC | 0.56 | –
13 | COc1ccc(-c2oc(-c3ccccn3)cc2C(=O)c2ccccc2)cc1OC1CCCC1 | 0.59 | –
14 | COc1ccc(-c2cc(S(=O)(=O)c3ccccc3)c(-c3ccccn3)o2)cc1OC1CCCC1 | 0.74 | –
